Where two headings read alike, the source gives them in different places. Bridge positions count the residues as written; N and C are the ends. Square brackets hold non-standard residues; d marks the D form. Peptide text beside a SMILES is read from it. * marks the point of attachment. Butanoyl(4-pyren-1-yl) = O=C(CCCc1ccc2ccc3cccc4ccc1c2c34)*; NMeL = CN[C@@H](CC(C)C)C(=O)O
Molecular target: T1, murine MAdCAM-1 (MAdCAM-1/mCk fusion protein); α4β7-bearing HUT 78 cells (Homo sapiens, UniProt P13612+P26010)
T1 construct: host or cells: HUT 78 cells (endogenous α4β7); The MAdCAM-1/mCk partner was made in house in baculovirus-infected Sf9 insect cells, used as neat supernatant and captured by rat anti-mCk antibody
Assay: Adhesion of HUT 78 cells to MAdCAM-1/mCk fusion protein bound via capture antibody
Type: cell-based
Details: for IC50: HUT 78 cell adhesion to MAdCAM-1/mCk, average of two determinations
Experimental: The compounds of the present invention were evaluated for their biological properties.
A soluble fusion protein comprising murine MAdCAM-1 was produced in a baculovirus expression system and used in the adhesion assay. A fusion gene in which sequences encoding the signal peptide and extracellular domain of murine MAdCAM-1 were fused to sequences encoding a constant region of the murine kappa light chain (mCk) was constructed, and cloned into a baculovirus shuttle vector. Fusion protein produced from the resulting construct contained the integrin binding sequences of murine MAdCAM-1 at the amino-terminus, and the mCk sequence at the carboxy-terminus. Recombinant baculovirus encoding the fusion protein was harvested from infected Sf9 insect cells.
Human T-cell lymphoma cells (HUT 78 cells) activated with Mn^+2 were used for the adhesion assay in a 96-well format. HUT 78 cells were labelled by preincubation with ECECF-AM stain (Molecular Probes). Assays were conducted in a final volume of 200 μl. The adhesion of HUT 78 cells to MAdCAM-1/mCk fusion protein bound to wells via rat anti-mCk capture antibody was assessed in the presence or absence of each compound. […] Percent inhibition and IC50 values were determined.
HUT 78 cells (a human T cell lymphoma line; American Type Culture Collection, Accession No. ATCC TIB 161) were maintained in culture for up to one month in RPMI 1640 supplemented with 10% FCS, 20 mM HEPES, and Pen-Strep (1:100). Just prior to use in adhesion assays, cells were labeled with BCECF-AM as follows: 1×10^7 cells were pelleted at 1000 rpm for 10 minutes and resuspended in 25 mL cold PBS (Phosphate Buffered Saline). The cells were pelleted again, resuspended in cold PBS, and pelleted again. The cell pellet was resuspended in 25 ml PBS and labeled with 50 μl BCECF-AM (1 μg/μL in DMSO) for 30 minutes at 37° C. (BCECF-AM; 2′,7′-bis-(2-carboxyethyl)-5-(and-6)-carboxyflourescein, acetoxymethyl ester). The labeled cells were pelleted at 700 rpm for 10 minutes, resuspended in 25 ml cold Assay Buffer and pelleted.
The assay was performed in a 96-well format. Plates were coated overnight at 4° C. with 53 μl/well of a 5 μg/mL solution of rat anti-mCk in carbonate buffer. The plates were blocked for 1 hour at 37° C. with 100 μL/well of 1% BSA in PBS. The BSA/PBS solution was removed, and 50 μL of MAdCAM-mCk supernatant was added neat to each well. The assay was conducted under conditions in which capture antibody was the limiting reagent.
Cell adhesion was measured in the presence or absence of compounds. The compounds were resuspended in 100% DMSO, subsequently diluted 1:10 in water, and finally diluted again 1:10 in the assay: 50 μL of 2X Assay Bufler, 30 μL water, 20 μL of compound were added to each well. […] Cell adhesion occurred in 30 minutes at ambient temperature, after which plates were washed with 50 mM Tris/2 mM MnCl2, pH 7.2 using an EL 404 Microplate Autowasher (BIO-TEK Instruments) using the following wash parameters: wash volume=500 μL; two wash cycles; wash depth=80; aspirating after each wash.
Additional determinations were conducted as needed, so that each IC50 was determined over a range which encompassed the IC50. Over this range, Four different concentrations were tested in duplicate.
For each compound, a ratio was determined as follows: An average of the readings from duplicate wells was divided by an average of eight control wells (adhesion in the absence of any compound). […] In addition, the concentration (μM) of compound used was plotted against the resulting ratios.
The IC50 was then determined using Kaleidograph software (Abelbeck Software). The complete procedure was repeated again using duplicate wells for each point.

[1] = HuT78, 500 μM compound, HUT 78 cells, Mn2+ activated, read-out: % Adhesion Inhibition 500 μM
[2] = HuT78, read-out: % Adhesion Inhibition

T1 sequence (P13612 34-1032): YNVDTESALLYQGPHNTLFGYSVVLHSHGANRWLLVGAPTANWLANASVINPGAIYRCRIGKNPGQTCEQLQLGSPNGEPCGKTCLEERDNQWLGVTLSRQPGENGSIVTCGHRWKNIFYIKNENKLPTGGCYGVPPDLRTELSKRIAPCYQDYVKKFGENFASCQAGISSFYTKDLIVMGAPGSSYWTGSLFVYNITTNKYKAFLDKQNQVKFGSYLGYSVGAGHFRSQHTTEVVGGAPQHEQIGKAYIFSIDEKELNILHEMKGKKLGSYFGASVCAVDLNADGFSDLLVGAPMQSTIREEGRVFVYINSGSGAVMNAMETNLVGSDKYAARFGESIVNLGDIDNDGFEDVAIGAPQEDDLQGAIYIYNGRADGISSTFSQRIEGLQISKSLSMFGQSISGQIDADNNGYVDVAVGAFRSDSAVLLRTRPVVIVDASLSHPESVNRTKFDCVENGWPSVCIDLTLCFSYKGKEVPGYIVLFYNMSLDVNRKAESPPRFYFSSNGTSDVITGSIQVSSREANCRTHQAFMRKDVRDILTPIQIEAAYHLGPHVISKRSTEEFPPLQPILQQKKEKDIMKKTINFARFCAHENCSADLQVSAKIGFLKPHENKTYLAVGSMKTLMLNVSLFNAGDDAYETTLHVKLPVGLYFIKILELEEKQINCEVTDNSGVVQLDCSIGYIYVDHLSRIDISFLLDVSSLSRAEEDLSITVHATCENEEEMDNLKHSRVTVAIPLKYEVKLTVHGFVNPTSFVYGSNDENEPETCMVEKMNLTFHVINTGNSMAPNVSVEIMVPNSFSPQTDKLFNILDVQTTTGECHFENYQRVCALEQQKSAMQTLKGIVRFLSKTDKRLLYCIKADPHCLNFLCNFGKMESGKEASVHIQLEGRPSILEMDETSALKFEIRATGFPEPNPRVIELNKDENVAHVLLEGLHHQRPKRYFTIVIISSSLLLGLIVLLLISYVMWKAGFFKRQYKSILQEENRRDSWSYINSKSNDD
T1 sequence (P26010 20-798): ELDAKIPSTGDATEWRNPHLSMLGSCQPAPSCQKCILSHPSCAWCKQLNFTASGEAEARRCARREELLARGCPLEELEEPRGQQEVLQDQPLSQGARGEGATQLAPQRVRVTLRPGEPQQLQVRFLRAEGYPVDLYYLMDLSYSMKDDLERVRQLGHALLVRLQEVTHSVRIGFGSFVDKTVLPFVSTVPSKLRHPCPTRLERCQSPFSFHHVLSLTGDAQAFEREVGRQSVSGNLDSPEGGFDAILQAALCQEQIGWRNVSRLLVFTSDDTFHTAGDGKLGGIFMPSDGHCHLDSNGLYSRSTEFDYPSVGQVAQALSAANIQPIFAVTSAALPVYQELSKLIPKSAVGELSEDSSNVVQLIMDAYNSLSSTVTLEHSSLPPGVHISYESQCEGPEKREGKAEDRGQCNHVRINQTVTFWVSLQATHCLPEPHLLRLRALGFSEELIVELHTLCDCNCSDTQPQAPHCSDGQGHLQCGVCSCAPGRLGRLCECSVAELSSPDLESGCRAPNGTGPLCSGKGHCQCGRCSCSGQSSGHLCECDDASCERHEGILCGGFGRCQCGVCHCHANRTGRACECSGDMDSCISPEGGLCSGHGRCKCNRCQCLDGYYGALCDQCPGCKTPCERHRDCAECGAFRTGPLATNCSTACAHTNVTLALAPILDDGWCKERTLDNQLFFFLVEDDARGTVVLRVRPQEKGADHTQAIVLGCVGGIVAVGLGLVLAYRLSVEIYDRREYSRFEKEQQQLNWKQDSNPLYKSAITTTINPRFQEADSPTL

| SMILES | inhibition at 500 µM [1] [%] | IC50 (read-out: IC50) [µM] | further results |
| --- | --- | --- | --- |
| CC(=O)N[C@H]1CSSC[C@@H](C(N)=O)NC(=O)[C@H](CC(C)C)NC(=O)[C@H](CO)NC(=O)[C@H]([C@@H](C)O)NC(=O)[C@H](CC(=O)O)NC(=O)[C@H](CC(C)C)NC1=O [Example 4, Ac-Cys*-Leu-Asp-Thr-Ser-Leu-Cys*] (Ac-CLDTSLC-NH2; disulfide 1-7) |  |  | inhibition at 250 µM (HuT78, @250 μM compound, HUT 78 cells, read-out: % Adhesion Inhibition): 51% |
| CC(=O)N[C@H]1CSSC[C@@H](C(N)=O)NC(=O)CNC(=O)[C@H](CC(C)C)NC(=O)[C@H](CO)NC(=O)[C@H]([C@@H](C)O)NC(=O)[C@H](CC(=O)O)NC(=O)[C@H](CC(C)C)NC(=O)CNC1=O [Example 5] (Ac-CGLDTSLGC-NH2; disulfide 1-9) |  |  | inhibition at 200 µM (HuT78, @200 μM compound, HUT 78 cells): 45% |
| CC(=O)N[C@@H](CCCNC(=N)N)C(=O)NCC(=O)N[C@@H](CC(C)C)C(=O)N[C@@H](CC(=O)O)C(=O)N[C@H](C(=O)N[C@@H](CO)C(=O)N[C@@H](CC(C)C)C(N)=O)[C@@H](C)O [Example 8, Ac-Arg-Gly-Leu-Asp-Thr-Ser-Leu] (Ac-RGLDTSL-NH2) | 35 |  |  |
| CC(=O)NCC(=O)N[C@@H](CC(C)C)C(=O)N[C@@H](CC(=O)O)C(=O)N[C@H](C(=O)N[C@@H](CO)C(=O)N[C@@H](CC(C)C)C(N)=O)[C@@H](C)O [Example 9, Ac-Gly-Leu-Asp-Thr-Ser-Leu] (Ac-GLDTSL-NH2) | 58 |  |  |
| CC(=O)N[C@@H](CCCNC(=N)N)C(=O)NCC(=O)N[C@@H](CC(C)C)C(=O)N[C@@H](CC(=O)O)C(=O)N[C@H](C(=O)N[C@@H](CO)C(N)=O)[C@@H](C)O [Example 12, Ac-Arg-Gly-Leu-Asp-Thr-Ser] (Ac-RGLDTS-NH2) | 31 | 1790 |  |
| CC(=O)N(C)[C@@H](CC(C)C)C(=O)N[C@@H](CC(C)C)C(=O)N[C@@H](CC(=O)O)C(=O)N[C@H](C(=O)N[C@@H](CO)C(=O)N[C@@H](CC(C)C)C(N)=O)[C@@H](C)O [Example 17, Ac-MeLeu-Leu-Asp-Thr-Ser-Leu] (Ac-[NMeL]LDTSL-NH2) | 28 |  |  |
| CC(C)C[C@H](NC(=O)[C@H](CO)NC(=O)[C@@H](NC(=O)[C@H](CC(=O)O)NC(=O)[C@H](CC(C)C)NC(=O)CCCCCc1ccccc1)[C@@H](C)O)C(N)=O [Example 18, Phx-Leu-Asp-Thr-Ser-Leu] | 32 | 818 |  |
| CC(C)Cc1ccc(C(C)C(=O)N[C@@H](CC(C)C)C(=O)N[C@@H](CC(=O)O)C(=O)N[C@H](C(=O)N[C@@H](CO)C(=O)N[C@@H](CC(C)C)C(N)=O)[C@@H](C)O)cc1 (stereo partly drawn) [Example 19, Impa-Leu-Asp-Thr-Ser-Leu] | 44 | 1140 |  |
| CC(C)C[C@H](NC(=O)[C@H](CO)NC(=O)[C@@H](NC(=O)[C@H](CC(=O)O)NC(=O)[C@H](CC(C)C)NC(=O)Cc1ccc(-c2ccccc2)cc1)[C@@H](C)O)C(N)=O [Example 20, Bipa-Leu-Asp-Thr-Ser-Leu] | 54 | 485 |  |
| CC(C)C[C@H](NC(=O)[C@H](CO)NC(=O)[C@@H](NC(=O)[C@H](CC(=O)O)NC(=O)[C@H](CC(C)C)NC(=O)Cc1cccc2ccccc12)[C@@H](C)O)C(N)=O [Example 21, Npa-Leu-Asp-Thr-Ser-Leu] | 39 | 548 |  |
| CCCCCCCc1ccc(C(=O)N[C@@H](CC(C)C)C(=O)N[C@@H](CC(=O)O)C(=O)N[C@H](C(=O)N[C@@H](CO)C(=O)N[C@@H](CC(C)C)C(N)=O)[C@@H](C)O)cc1 [Example 22, Hbz-Leu-Asp-Thr-Ser-Leu] | 51 | 401 |  |
| CC(C)C[C@H](NC(=O)[C@H](CO)NC(=O)[C@@H](NC(=O)[C@H](CC(=O)O)NC(=O)[C@H](CC(C)C)NC(=O)CCCc1ccc2ccc3cccc4ccc1c2c34)[C@@H](C)O)C(N)=O [Example 23, Pba-Leu-Asp-Thr-Ser-Leu] |  |  | inhibition at 50 µM [2]: 88%; IC50 (IC50 (μM)): 2.8 µM |
| CC(C)C[C@H](NC(=O)[C@H](CO)NC(=O)[C@@H](NC(=O)[C@H](CC(=O)O)NC(=O)[C@H](CC(C)C)NC(=O)C1C(C)(C)C1(C)C)[C@@H](C)O)C(N)=O [Example 25, Tpc-Leu-Asp-Thr-Ser-Leu] | 39 | 121 |  |
| CC(C)C[C@H](NC(=O)[C@H](CO)NC(=O)[C@@H](NC(=O)[C@H](CC(=O)O)NC(=O)[C@H](CC(C)C)NC(=O)Cc1ccccc1)[C@@H](C)O)C(N)=O [Example 26, Pha-Leu-Asp-Thr-Ser-Leu] |  |  | inhibition at 500 µM (HuT78, read-out: % Adhesion Inhibition 500 μM): 38%; IC50 (IC50 (μM)): 2130 µM |
| CC(C)C[C@H](NC(=O)[C@H](CO)NC(=O)[C@@H](NC(=O)[C@H](CC(=O)O)NC(=O)[C@H](CC(C)C)NC(=O)C(c1ccccc1)(c1ccccc1)c1ccccc1)[C@@H](C)O)C(N)=O [Example 28, Tpa-Leu-Asp-Thr-Ser-Leu] |  | 0.3 |  |
| CC(C)C[C@H](NC(=O)[C@H](CO)NC(=O)[C@@H](NC(=O)[C@H](CC(=O)O)NC(=O)[C@H](CC(C)C)NC(=O)Cc1ccc2ccc3cccc4ccc1c2c34)[C@@H](C)O)C(N)=O [Example 29, Paa-Leu-Asp-Thr-Ser-Leu] |  |  | IC50 (IC50 (μM)): 0.5 µM |
| CC(C)C[C@H](NC(=O)[C@H](CO)NC(=O)[C@@H](NC(=O)[C@H](CC(=O)O)NC(=O)[C@H](CC(C)C)NC(=O)[C@@H]1CCCN1C(=O)CCCc1ccc2ccc3cccc4ccc1c2c34)[C@@H](C)O)C(N)=O [Example 30, Pba-Pro-Leu-Asp-Thr-Ser-Leu] ({Butanoyl(4-pyren-1-yl)}-PLDTSL-NH2) |  |  | IC50 (IC50 (μM)): 47 µM |
| CC(C)C[C@H](NC(=O)[C@H](CO)NC(=O)[C@@H](NC(=O)[C@H](CC(=O)O)NC(=O)[C@H](CC(C)C)NC(=O)C(c1ccccc1)c1ccccc1)[C@@H](C)O)C(N)=O [Example 31, Dpa-Leu-Asp-Thr-Ser-Leu] |  | 11 |  |
| CC(C)C[C@H](NC(=O)[C@H](CO)NC(=O)[C@@H](NC(=O)[C@H](CC(=O)O)NC(=O)[C@H](CC(C)C)NC(=O)c1cc(-c2ccccc2)cc(-c2ccccc2)c1)[C@@H](C)O)C(N)=O [Example 32, Dphb-Leu-Asp-Thr-Ser-Leu] |  | 15 |  |
| CC(C)C[C@H](NC(=O)[C@H](CO)NC(=O)[C@@H](NC(=O)[C@H](CC(=O)O)NC(=O)[C@H](CC(C)C)NC(=O)c1ccc2ccc3cccc4ccc1c2c34)[C@@H](C)O)C(N)=O [Example 34, Pca-Leu-Asp-Thr-Ser-Leu] |  |  | IC50 (IC50 (μM)): 2.1 µM |
| CC(C)C[C@H](NC(=O)[C@H](CO)NC(=O)[C@@H](NC(=O)[C@H](CC(=O)O)NC(=O)[C@H](CC(C)C)NC(=O)CCCc1ccc2ccc3cccc4ccc1c2c34)[C@@H](C)O)C(N)=O [Example 36, Pba-Leu-Asp-Thr-Ser-Leu] |  |  | IC50 (IC50 (μM)): 4 µM |
| CC(C)C[C@H](NC(=O)[C@H](CO)NC(=O)[C@@H](NC(=O)[C@H](CC(=O)O)NC(=O)[C@H](CC(C)C)NC(=O)CC(c1ccccc1)(c1ccccc1)c1ccccc1)[C@@H](C)O)C(N)=O [Example 37, Tphp-Leu-Asp-Thr-Ser-Leu] |  | 14 |  |
| CC(C)C[C@H](NC(=O)[C@H](CO)NC(=O)[C@@H](NC(=O)[C@H](CC(=O)O)NC(=O)[C@H](CC(C)C)NC(=O)c1ccc2cc3ccccc3cc2c1)[C@@H](C)O)C(N)=O [Example 38, 2-Anc-Leu-Asp-Thr-Ser-Leu] |  | 5.4 |  |
| CC(C)C[C@H](NC(=O)[C@H](CO)NC(=O)[C@@H](NC(=O)[C@H](C)NC(=O)[C@H](CC(C)C)NC(=O)CCCc1ccc2ccc3cccc4ccc1c2c34)[C@@H](C)O)C(N)=O [Example 39, Pba-Leu-Ala-Thr-Ser-Leu] ({Butanoyl(4-pyren-1-yl)}-LATSL-NH2) |  |  | inhibition at 250 µM [2]: 100%; IC50 (IC50 (μM)): 28 µM |

Source: patent US20020103111A1, “Inhibitors of MAdCAM-1-mediated interactions and methods of use therefor” (Millennium Pharmaceuticals, Inc., priority 1996, published 2002)
